{
  "source": "PubChem BioAssay AID1963978",
  "about": "(Molecular Pharmacology Branch, DTP, NCI, 2024)",
  "tested_on": "616215-338-R-J1-PDC spheroids with HUVEC/MSC, viability",
  "experiment": "Anticancer human tumor 616215-338-R-J1-PDC patient-derived colon adenocarcinoma cell line growth inhibition [PI3K]",
  "conditions": "for pIC50: curve of first compound; for viability, T/C: stronger effect = lower value",
  "summary_of_the_method": "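Spheroid viability read-out. Co-cultures contained the tumor line plus HUVEC and human MSCs. Each agent was paired with a PI3K inhibitor (inavolisib, alpelisib, duvelisib, copanlisib) across half-log dilutions starting at clinical Cmax, or at 10 microM when Cmax was unknown.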",
  "key": {"[1]": {"conditions": "second compound 0.0316 µM, first compound 0.0316 µM"}, "[2]": {"conditions": "second compound 0.0316 µM, first compound 0.1 µM"}, "[3]": {"conditions": "second compound 0.0316 µM, first compound 0.316 µM"}, "[4]": {"conditions": "second compound 0.0316 µM, first compound 1 µM"}, "[5]": {"conditions": "second compound 0.1 µM, first compound 0.0316 µM"}, "[6]": {"conditions": "second compound 0.1 µM, first compound 0.1 µM"}, "[7]": {"conditions": "second compound 0.1 µM, first compound 0.316 µM"}, "[8]": {"conditions": "second compound 0.1 µM, first compound 1 µM"}, "[9]": {"conditions": "second compound 0.316 µM, first compound 0.0316 µM"}, "[10]": {"conditions": "second compound 0.316 µM, first compound 0.1 µM"}, "[11]": {"conditions": "second compound 0.316 µM, first compound 0.316 µM"}, "[12]": {"conditions": "second compound 0.316 µM, first compound 1 µM"}, "[13]": {"conditions": "second compound 1 µM, first compound 0.0316 µM"}, "[14]": {"conditions": "second compound 1 µM, first compound 0.1 µM"}, "[15]": {"conditions": "second compound 1 µM, first compound 0.316 µM"}, "[16]": {"conditions": "second compound 1 µM, first compound 1 µM"}, "[17]": {"conditions": "second compound 3.16 µM, first compound 0.0316 µM"}, "[18]": {"conditions": "second compound 3.16 µM, first compound 0.1 µM"}, "[19]": {"conditions": "second compound 3.16 µM, first compound 0.316 µM"}, "[20]": {"conditions": "second compound 3.16 µM, first compound 1 µM"}, "[21]": {"conditions": "second compound 10 µM, first compound 0.0316 µM"}, "[22]": {"conditions": "second compound 10 µM, first compound 0.1 µM"}, "[23]": {"conditions": "second compound 10 µM, first compound 0.316 µM"}, "[24]": {"conditions": "second compound 10 µM, first compound 1 µM"}},
  "note": "pIC50: −log10 of the molar value.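 Also: spheroids exposed to agents for seven days before the viability read.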",
  "data": [
    {"smiles": "CCN1CCN(Cc2ccc(Nc3ncc(F)c(-c4cc(F)c5nc(C)n(C(C)C)c5c4)n3)nc2)CC1", "note": "+ CC(Nc1ncnc2nc[nH]c12)c1cc2cccc(Cl)c2c(=O)n1-c1ccccc1", "values": [
      {"measurement": "pIC50", "setting": "second compound 0.0316 µM", "value": "< 6.00"},
      {"measurement": "pIC50", "setting": "second compound 0.1 µM", "value": "< 6.00"},
      {"measurement": "pIC50", "setting": "second compound 0.316 µM", "value": "< 6.00"},
      {"measurement": "pIC50", "setting": "second compound 1 µM", "value": "< 6.00"},
      {"measurement": "pIC50", "setting": "second compound 3.16 µM", "value": "< 6.00"},
      {"measurement": "pIC50", "setting": "second compound 10 µM", "value": "< 6.00"},
      {"measurement": "viability, T/C", "setting": "second compound 0.0316 µM, first compound 0.00316 µM", "value": 92, "unit": "%"},
      {"measurement": "viability, T/C", "setting": "second compound 0.0316 µM, first compound 0.01 µM", "value": 90.9, "unit": "%"},
      {"measurement": "viability, T/C", "setting": "[1]", "value": 100, "unit": "%"},
      {"measurement": "viability, T/C", "setting": "[2]", "value": 98.6, "unit": "%"},
      {"measurement": "viability, T/C", "setting": "[3]", "value": 150, "unit": "%"},
      {"measurement": "viability, T/C", "setting": "[4]", "value": 109, "unit": "%"},
      {"measurement": "viability, T/C", "setting": "second compound 0.1 µM, first compound 0.00316 µM", "value": 91.5, "unit": "%"},
      {"measurement": "viability, T/C", "setting": "second compound 0.1 µM, first compound 0.01 µM", "value": 88.2, "unit": "%"},
      {"measurement": "viability, T/C", "setting": "[5]", "value": 104, "unit": "%"},
      {"measurement": "viability, T/C", "setting": "[6]", "value": 106, "unit": "%"},
      {"measurement": "viability, T/C", "setting": "[7]", "value": 137, "unit": "%"},
      {"measurement": "viability, T/C", "setting": "[8]", "value": 149, "unit": "%"},
      {"measurement": "viability, T/C", "setting": "second compound 0.316 µM, first compound 0.00316 µM", "value": 95.2, "unit": "%"},
      {"measurement": "viability, T/C", "setting": "second compound 0.316 µM, first compound 0.01 µM", "value": 93.9, "unit": "%"},
      {"measurement": "viability, T/C", "setting": "[9]", "value": 98.2, "unit": "%"},
      {"measurement": "viability, T/C", "setting": "[10]", "value": 100, "unit": "%"},
      {"measurement": "viability, T/C", "setting": "[11]", "value": 147, "unit": "%"},
      {"measurement": "viability, T/C", "setting": "[12]", "value": 106, "unit": "%"},
      {"measurement": "viability, T/C", "setting": "second compound 1 µM, first compound 0.00316 µM", "value": 98.5, "unit": "%"},
      {"measurement": "viability, T/C", "setting": "second compound 1 µM, first compound 0.01 µM", "value": 90.5, "unit": "%"},
      {"measurement": "viability, T/C", "setting": "[13]", "value": 105, "unit": "%"},
      {"measurement": "viability, T/C", "setting": "[14]", "value": 108, "unit": "%"},
      {"measurement": "viability, T/C", "setting": "[15]", "value": 148, "unit": "%"},
      {"measurement": "viability, T/C", "setting": "[16]", "value": 79.7, "unit": "%"},
      {"measurement": "viability, T/C", "setting": "second compound 3.16 µM, first compound 0.00316 µM", "value": 106, "unit": "%"},
      {"measurement": "viability, T/C", "setting": "second compound 3.16 µM, first compound 0.01 µM", "value": 93.9, "unit": "%"},
      {"measurement": "viability, T/C", "setting": "[17]", "value": 123, "unit": "%"},
      {"measurement": "viability, T/C", "setting": "[18]", "value": 124, "unit": "%"},
      {"measurement": "viability, T/C", "setting": "[19]", "value": 144, "unit": "%"},
      {"measurement": "viability, T/C", "setting": "[20]", "value": 86.8, "unit": "%"},
      {"measurement": "viability, T/C", "setting": "second compound 10 µM, first compound 0.00316 µM", "value": 111, "unit": "%"},
      {"measurement": "viability, T/C", "setting": "second compound 10 µM, first compound 0.01 µM", "value": 107, "unit": "%"},
      {"measurement": "viability, T/C", "setting": "[21]", "value": 118, "unit": "%"},
      {"measurement": "viability, T/C", "setting": "[22]", "value": 120, "unit": "%"},
      {"measurement": "viability, T/C", "setting": "[23]", "value": 114, "unit": "%"},
      {"measurement": "viability, T/C", "setting": "[24]", "value": 57.9, "unit": "%"}
    ]},
    {"smiles": "C=CC(=O)N1CCN(c2nc(=O)n(-c3c(C)ccnc3C(C)C)c3nc(-c4c(O)cccc4F)c(F)cc23)C(C)C1", "note": "(centres undefined) + Cc1nc(NC(=O)N2CCCC2C(N)=O)sc1-c1ccnc(C(C)(C)C(F)(F)F)c1", "values": [
      {"measurement": "pIC50", "setting": "second compound 0.0316 µM", "value": "< 5.00"},
      {"measurement": "pIC50", "setting": "second compound 0.1 µM", "value": "< 5.00"},
      {"measurement": "pIC50", "setting": "second compound 0.316 µM", "value": "< 5.00"},
      {"measurement": "pIC50", "setting": "second compound 1 µM", "value": "< 5.00"},
      {"measurement": "pIC50", "setting": "second compound 3.16 µM", "value": "< 5.00"},
      {"measurement": "pIC50", "setting": "second compound 10 µM", "value": "< 5.00"},
      {"measurement": "viability, T/C", "setting": "[1]", "value": 104, "unit": "%"},
      {"measurement": "viability, T/C", "setting": "[2]", "value": 92.1, "unit": "%"},
      {"measurement": "viability, T/C", "setting": "[3]", "value": 99.2, "unit": "%"},
      {"measurement": "viability, T/C", "setting": "[4]", "value": 88.3, "unit": "%"},
      {"measurement": "viability, T/C", "setting": "second compound 0.0316 µM, first compound 3.16 µM", "value": 113, "unit": "%"},
      {"measurement": "viability, T/C", "setting": "second compound 0.0316 µM, first compound 10 µM", "value": 95.2, "unit": "%"},
      {"measurement": "viability, T/C", "setting": "[5]", "value": 100, "unit": "%"},
      {"measurement": "viability, T/C", "setting": "[6]", "value": 92.7, "unit": "%"},
      {"measurement": "viability, T/C", "setting": "[7]", "value": 91.6, "unit": "%"},
      {"measurement": "viability, T/C", "setting": "[8]", "value": 98.8, "unit": "%"},
      {"measurement": "viability, T/C", "setting": "second compound 0.1 µM, first compound 3.16 µM", "value": 103, "unit": "%"},
      {"measurement": "viability, T/C", "setting": "second compound 0.1 µM, first compound 10 µM", "value": 90.3, "unit": "%"},
      {"measurement": "viability, T/C", "setting": "[9]", "value": 108, "unit": "%"},
      {"measurement": "viability, T/C", "setting": "[10]", "value": 103, "unit": "%"},
      {"measurement": "viability, T/C", "setting": "[11]", "value": 111, "unit": "%"},
      {"measurement": "viability, T/C", "setting": "[12]", "value": 101, "unit": "%"},
      {"measurement": "viability, T/C", "setting": "second compound 0.316 µM, first compound 3.16 µM", "value": 104, "unit": "%"},
      {"measurement": "viability, T/C", "setting": "second compound 0.316 µM, first compound 10 µM", "value": 86.5, "unit": "%"},
      {"measurement": "viability, T/C", "setting": "[13]", "value": 97.5, "unit": "%"},
      {"measurement": "viability, T/C", "setting": "[14]", "value": 93.3, "unit": "%"},
      {"measurement": "viability, T/C", "setting": "[15]", "value": 109, "unit": "%"},
      {"measurement": "viability, T/C", "setting": "[16]", "value": 99.1, "unit": "%"},
      {"measurement": "viability, T/C", "setting": "second compound 1 µM, first compound 3.16 µM", "value": 110, "unit": "%"},
      {"measurement": "viability, T/C", "setting": "second compound 1 µM, first compound 10 µM", "value": 84.9, "unit": "%"},
      {"measurement": "viability, T/C", "setting": "[17]", "value": 98.6, "unit": "%"},
      {"measurement": "viability, T/C", "setting": "[18]", "value": 98.3, "unit": "%"},
      {"measurement": "viability, T/C", "setting": "[19]", "value": 102, "unit": "%"},
      {"measurement": "viability, T/C", "setting": "[20]", "value": 89.5, "unit": "%"},
      {"measurement": "viability, T/C", "setting": "second compound 3.16 µM, first compound 3.16 µM", "value": 95.8, "unit": "%"},
      {"measurement": "viability, T/C", "setting": "second compound 3.16 µM, first compound 10 µM", "value": 80.2, "unit": "%"},
      {"measurement": "viability, T/C", "setting": "[21]", "value": 94.4, "unit": "%"},
      {"measurement": "viability, T/C", "setting": "[22]", "value": 86.7, "unit": "%"},
      {"measurement": "viability, T/C", "setting": "[23]", "value": 98.7, "unit": "%"},
      {"measurement": "viability, T/C", "setting": "[24]", "value": 91.1, "unit": "%"},
      {"measurement": "viability, T/C", "setting": "second compound 10 µM, first compound 3.16 µM", "value": 95.9, "unit": "%"},
      {"measurement": "viability, T/C", "setting": "second compound 10 µM, first compound 10 µM", "value": 83.6, "unit": "%"}
    ]}
  ]
}
